Laboratory results reported in ChEMBL document CHEMBL1141584, “Synthesis, biological evaluation and molecular modelling studies of methyleneimidazole substituted biaryls as inhibitors of human 17alpha-hydroxylase-17,20-lyase (CYP17). Part I: Heterocyclic modifications of the core structure” (Bioorg Med Chem, 2008).

Experiments:
Rattus norvegicus [1] = experiment: Reduction of testosterone level in Wistar rat plasma at 56.02 mg/kg, po after 1 hr by ELISA relative to pretreatment value; format: functional; design: scale not given: the % may be the effect or the level left
Rattus norvegicus [2] = experiment: Reduction of testosterone level in Wistar rat plasma at 56.02 mg/kg, po after 2 hrs by ELISA relative to pretreatment value; format: functional; design: scale not given: the % may be the effect or the level left
Rattus norvegicus [3] = experiment: Reduction of testosterone level in Wistar rat plasma at 56.02 mg/kg, po after 4 hrs by ELISA relative to pretreatment value; format: functional; design: scale not given: the % may be the effect or the level left
Rattus norvegicus [4] = experiment: Reduction of testosterone level in Wistar rat plasma at 56.02 mg/kg, po after 6 hrs by ELISA relative to pretreatment value; format: functional; design: scale not given: the % may be the effect or the level left
Rattus norvegicus [5] = experiment: Reduction of testosterone level in Wistar rat plasma at 56.02 mg/kg, po after 8 hrs by ELISA relative to pretreatment value; format: functional; design: scale not given: the % may be the effect or the level left
[6] = molecular target: T1, Steroid 17-alpha-hydroxylase/17,20 lyase (Homo sapiens, UniProt P05093); experiment: Inhibition of human CYP17 expressed in Escherichia coli co-expressed with NADPH-P450 reductase at 0.2 uM
T1 sequence (P05093 whole entry): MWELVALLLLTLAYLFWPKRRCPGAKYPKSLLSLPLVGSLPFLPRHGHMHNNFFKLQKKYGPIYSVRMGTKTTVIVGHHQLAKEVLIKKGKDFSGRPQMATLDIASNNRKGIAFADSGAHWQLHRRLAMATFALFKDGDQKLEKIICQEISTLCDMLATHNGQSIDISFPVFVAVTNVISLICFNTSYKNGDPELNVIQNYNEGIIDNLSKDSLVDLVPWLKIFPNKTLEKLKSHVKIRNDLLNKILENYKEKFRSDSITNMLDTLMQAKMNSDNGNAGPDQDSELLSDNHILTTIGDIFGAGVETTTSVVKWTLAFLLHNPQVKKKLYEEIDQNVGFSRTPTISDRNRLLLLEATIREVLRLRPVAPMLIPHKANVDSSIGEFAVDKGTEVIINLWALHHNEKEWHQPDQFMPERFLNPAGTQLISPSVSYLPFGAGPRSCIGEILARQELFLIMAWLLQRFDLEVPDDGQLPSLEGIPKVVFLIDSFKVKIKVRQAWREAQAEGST

[7] = molecular target: T1, Steroid 17-alpha-hydroxylase/17,20 lyase; experiment: Inhibition of human CYP17 expressed in Escherichia coli co-expressed with NADPH-P450 reductase at 2 uM
CYP3A4 [8] = molecular target: T2, CYP3A4 (Homo sapiens, UniProt P08684); experiment: Inhibition of recombinant CYP3A4 at 10 uM; format: ADME
CYP1A2 [9] = molecular target: T3, CYP1A2 (Homo sapiens, UniProt P05177); experiment: Inhibition of recombinant CYP1A2 at 1 uM; format: ADME
T3 sequence (P05177 whole entry): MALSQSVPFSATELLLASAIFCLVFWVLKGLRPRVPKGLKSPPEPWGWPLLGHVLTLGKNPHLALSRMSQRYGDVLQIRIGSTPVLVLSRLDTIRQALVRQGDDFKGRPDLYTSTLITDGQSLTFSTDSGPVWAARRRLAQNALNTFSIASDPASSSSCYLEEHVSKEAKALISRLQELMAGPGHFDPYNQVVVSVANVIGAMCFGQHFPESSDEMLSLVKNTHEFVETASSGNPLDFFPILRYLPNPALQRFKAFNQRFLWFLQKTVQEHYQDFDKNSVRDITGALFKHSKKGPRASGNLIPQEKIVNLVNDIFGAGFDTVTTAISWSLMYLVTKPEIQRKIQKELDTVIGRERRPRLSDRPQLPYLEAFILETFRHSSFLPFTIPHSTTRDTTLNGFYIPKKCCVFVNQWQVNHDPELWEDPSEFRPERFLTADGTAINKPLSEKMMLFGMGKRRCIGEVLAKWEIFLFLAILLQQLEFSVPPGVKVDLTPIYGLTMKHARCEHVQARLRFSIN

CYP1A2 [10] = molecular target: T3, CYP1A2; experiment: Inhibition of recombinant CYP1A2 at 10 uM; format: ADME
CYP2C9 [11] = molecular target: T4, CYP2C9 (Homo sapiens, UniProt P11712); experiment: Inhibition of recombinant CYP2C9 at 1 uM; format: ADME
CYP2C9 [12] = molecular target: T4, CYP2C9; experiment: Inhibition of recombinant CYP2C9 at 10 uM; format: ADME
CYP2C19 [13] = molecular target: T5, CYP2C19 (Homo sapiens, UniProt P33261); experiment: Inhibition of recombinant CYP2C19 at 1 uM; format: ADME
CYP2C19 [14] = molecular target: T5, CYP2C19; experiment: Inhibition of recombinant CYP2C19 at 10 uM; format: ADME
CYP2B6 [15] = molecular target: T6, CYP2B6 (Homo sapiens, UniProt P20813); experiment: Inhibition of recombinant CYP2B6 at 1 uM; format: ADME
T6 sequence (P20813 whole entry): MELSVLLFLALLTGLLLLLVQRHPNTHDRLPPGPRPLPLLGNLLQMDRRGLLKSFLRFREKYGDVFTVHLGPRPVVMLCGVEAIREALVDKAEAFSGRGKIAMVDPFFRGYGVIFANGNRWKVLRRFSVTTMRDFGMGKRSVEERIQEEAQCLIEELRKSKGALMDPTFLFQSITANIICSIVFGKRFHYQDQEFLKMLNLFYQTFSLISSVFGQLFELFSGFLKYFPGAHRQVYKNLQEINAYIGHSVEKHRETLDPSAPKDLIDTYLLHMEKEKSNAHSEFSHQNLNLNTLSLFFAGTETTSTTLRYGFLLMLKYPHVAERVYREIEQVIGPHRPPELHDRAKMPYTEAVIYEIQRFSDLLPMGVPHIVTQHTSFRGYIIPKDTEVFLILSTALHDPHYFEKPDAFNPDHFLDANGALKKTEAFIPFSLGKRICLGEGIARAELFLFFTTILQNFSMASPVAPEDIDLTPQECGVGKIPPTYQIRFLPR

CYP2B6 [16] = molecular target: T6, CYP2B6; experiment: Inhibition of recombinant CYP2B6 at 10 uM; format: ADME
CYP2D6 [17] = molecular target: T7, CYP2D6 (Homo sapiens, UniProt P10635); experiment: Inhibition of recombinant CYP2D6 at 1 uM; format: ADME
CYP2D6 [18] = molecular target: T7, CYP2D6; experiment: Inhibition of recombinant CYP2D6 at 10 uM; format: ADME
Rattus norvegicus [19] = experiment: Reduction of testosterone level in Wistar rat plasma at 50 mg/kg, po after 1 hr by ELISA relative to pretreatment value; format: functional; design: scale not given: the % may be the effect or the level left
Rattus norvegicus [20] = experiment: Reduction of testosterone level in Wistar rat plasma at 50 mg/kg, po after 2 hrs by ELISA relative to pretreatment value; format: functional; design: scale not given: the % may be the effect or the level left
Rattus norvegicus [21] = experiment: Reduction of testosterone level in Wistar rat at 50 mg/kg, po after 4 hrs by ELISA relative to pretreatment value; format: functional; design: scale not given: the % may be the effect or the level left
Rattus norvegicus [22] = experiment: Reduction of testosterone level in Wistar rat plasma at 50 mg/kg, po after 6 hrs by ELISA relative to pretreatment value; format: functional; design: scale not given: the % may be the effect or the level left
Rattus norvegicus [23] = experiment: Reduction of testosterone level in Wistar rat plasma at 50 mg/kg, po after 8 hrs by ELISA relative to pretreatment value; format: functional; design: scale not given: the % may be the effect or the level left
[24] = Terminal half life in Wistar rat plasma at 50 mg/kg, po; format: ADME, organism-based; design: dose 50 mg/kg, route oral
[25] = Tmax in Wistar rat at 50 mg/kg, po; format: ADME, organism-based; design: dose 50 mg/kg, route oral; settings: in vivo
[26] = Cmax in Wistar rat at 50 mg/kg, po; format: ADME, organism-based; design: dose 50 mg/kg, route oral; settings: in vivo
[27] = AUC (0 to infinity) in Wistar rat at 50 mg/kg, po; format: ADME, organism-based; design: time infinity, dose 50 mg/kg, route oral; settings: plasma
[28] = Total body clearance in Wistar rat at 50 mg/kg, po; format: ADME, organism-based; design: dose 50 mg/kg, route oral; settings: in vivo
[29] = molecular target: T1, Steroid 17-alpha-hydroxylase/17,20 lyase; experiment: Inhibition of human CYP17 expressed in Escherichia coli co-expressed with NADPH-P450 reductase
[30] = molecular target: T8, Steroid 17-alpha-hydroxylase/17,20 lyase (Rattus norvegicus, UniProt P11715); experiment: Inhibition of Sprague-Dawley rat testicular CYP17
T8 sequence (P11715 whole entry): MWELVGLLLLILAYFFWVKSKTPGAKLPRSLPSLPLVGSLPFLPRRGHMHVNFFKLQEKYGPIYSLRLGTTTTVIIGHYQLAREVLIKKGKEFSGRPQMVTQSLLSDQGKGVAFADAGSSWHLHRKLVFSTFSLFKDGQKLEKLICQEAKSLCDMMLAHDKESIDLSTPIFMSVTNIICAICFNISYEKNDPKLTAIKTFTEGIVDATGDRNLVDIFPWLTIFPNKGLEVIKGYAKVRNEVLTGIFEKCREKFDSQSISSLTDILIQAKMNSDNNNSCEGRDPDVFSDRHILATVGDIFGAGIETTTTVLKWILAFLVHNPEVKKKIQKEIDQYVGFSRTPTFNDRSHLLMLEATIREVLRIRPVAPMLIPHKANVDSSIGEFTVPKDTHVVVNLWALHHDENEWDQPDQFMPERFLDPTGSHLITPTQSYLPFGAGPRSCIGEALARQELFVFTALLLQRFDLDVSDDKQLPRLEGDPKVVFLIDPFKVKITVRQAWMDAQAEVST

CYP3A4 [31] = molecular target: T2, CYP3A4; experiment: Inhibition of recombinant CYP3A4 at 1 uM; format: ADME

T5 sequence (P33261 whole entry): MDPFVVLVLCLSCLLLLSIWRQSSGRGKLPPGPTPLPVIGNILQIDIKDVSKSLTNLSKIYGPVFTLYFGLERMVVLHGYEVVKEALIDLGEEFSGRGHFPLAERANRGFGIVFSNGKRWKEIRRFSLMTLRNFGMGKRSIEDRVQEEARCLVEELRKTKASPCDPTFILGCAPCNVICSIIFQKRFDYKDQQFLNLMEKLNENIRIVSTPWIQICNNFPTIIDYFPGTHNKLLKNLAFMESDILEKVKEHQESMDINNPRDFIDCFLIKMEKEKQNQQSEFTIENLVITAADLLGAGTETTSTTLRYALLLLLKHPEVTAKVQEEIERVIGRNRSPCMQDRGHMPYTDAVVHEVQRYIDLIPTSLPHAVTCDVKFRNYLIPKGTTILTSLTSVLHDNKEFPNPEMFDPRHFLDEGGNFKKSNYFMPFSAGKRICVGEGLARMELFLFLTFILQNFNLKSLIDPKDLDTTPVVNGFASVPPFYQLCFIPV
T7 sequence (P10635 whole entry): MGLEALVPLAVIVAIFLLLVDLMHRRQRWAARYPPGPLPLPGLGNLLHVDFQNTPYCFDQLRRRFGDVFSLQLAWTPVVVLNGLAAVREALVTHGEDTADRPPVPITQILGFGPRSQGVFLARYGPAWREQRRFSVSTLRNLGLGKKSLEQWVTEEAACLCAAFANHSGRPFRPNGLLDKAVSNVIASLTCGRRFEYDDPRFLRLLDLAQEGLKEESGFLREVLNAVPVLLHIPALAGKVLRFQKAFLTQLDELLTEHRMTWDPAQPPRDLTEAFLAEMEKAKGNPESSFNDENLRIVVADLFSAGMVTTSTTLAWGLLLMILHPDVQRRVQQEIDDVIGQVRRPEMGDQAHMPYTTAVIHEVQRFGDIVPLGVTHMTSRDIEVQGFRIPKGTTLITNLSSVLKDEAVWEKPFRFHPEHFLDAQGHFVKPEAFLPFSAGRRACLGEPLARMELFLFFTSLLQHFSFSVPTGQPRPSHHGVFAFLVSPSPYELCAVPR
T4 sequence (P11712 whole entry): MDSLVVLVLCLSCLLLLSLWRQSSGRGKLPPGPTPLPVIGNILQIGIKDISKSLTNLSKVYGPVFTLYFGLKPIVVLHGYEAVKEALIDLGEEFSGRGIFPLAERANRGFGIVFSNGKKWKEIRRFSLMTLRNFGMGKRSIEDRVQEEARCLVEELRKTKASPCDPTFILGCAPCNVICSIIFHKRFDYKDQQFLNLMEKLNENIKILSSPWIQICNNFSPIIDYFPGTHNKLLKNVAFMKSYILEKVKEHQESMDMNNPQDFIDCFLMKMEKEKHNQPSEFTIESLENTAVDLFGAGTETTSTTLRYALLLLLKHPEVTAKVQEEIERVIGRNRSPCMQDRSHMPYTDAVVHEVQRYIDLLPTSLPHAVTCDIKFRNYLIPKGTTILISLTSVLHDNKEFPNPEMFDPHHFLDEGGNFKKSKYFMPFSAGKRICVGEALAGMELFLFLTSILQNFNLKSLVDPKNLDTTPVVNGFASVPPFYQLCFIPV
T2 sequence (P08684 whole entry): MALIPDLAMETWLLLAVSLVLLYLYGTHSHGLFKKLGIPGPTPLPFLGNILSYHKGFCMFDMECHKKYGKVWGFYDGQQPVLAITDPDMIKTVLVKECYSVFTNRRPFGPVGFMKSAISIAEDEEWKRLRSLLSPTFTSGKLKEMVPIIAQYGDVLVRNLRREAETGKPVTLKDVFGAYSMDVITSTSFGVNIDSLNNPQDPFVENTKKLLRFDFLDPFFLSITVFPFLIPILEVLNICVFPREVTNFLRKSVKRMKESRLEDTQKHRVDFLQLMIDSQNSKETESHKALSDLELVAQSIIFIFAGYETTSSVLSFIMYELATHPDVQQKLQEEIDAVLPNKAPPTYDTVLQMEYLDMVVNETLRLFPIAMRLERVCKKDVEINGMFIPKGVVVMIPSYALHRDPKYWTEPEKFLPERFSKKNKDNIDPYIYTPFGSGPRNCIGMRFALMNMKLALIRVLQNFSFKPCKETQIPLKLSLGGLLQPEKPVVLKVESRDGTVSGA

CC(=O)O[C@H]1CC[C@@]2(C)C(=CC[C@@H]3[C@@H]2CC[C@]2(C)C(c4cccnc4)=CC[C@@H]32)C1 [ABIRATERONE ACETATE]
Activity (Rattus norvegicus [1]): 92.5%
Activity (Rattus norvegicus [2]): 44%
Activity (Rattus norvegicus [3]): 43.5%
Activity (Rattus norvegicus [4]): 43.3%
Activity (Rattus norvegicus [5]): 35.6%

CCC(c1ccc(-c2ccsc2)cc1)n1ccnc1 (stereo unspecified)
inhibition at 0.2 µM [6]: 28%
inhibition at 2 µM [7]: 83%
inhibition at 10 µM (CYP3A4 [8]): 92%
inhibition at 1 µM (CYP1A2 [9]): 98%
inhibition at 10 µM (CYP1A2 [10]): 100%
inhibition at 1 µM (CYP2C9 [11]): 81%
inhibition at 10 µM (CYP2C9 [12]): 74%
inhibition at 1 µM (CYP2C19 [13]): 95%
inhibition at 10 µM (CYP2C19 [14]): 100%
inhibition at 1 µM (CYP2B6 [15]): 60%
inhibition at 10 µM (CYP2B6 [16]): 87%
inhibition at 1 µM (CYP2D6 [17]): 24%
inhibition at 10 µM (CYP2D6 [18]): 77%
Activity (Rattus norvegicus [19]): 37.6%
Activity (Rattus norvegicus [20]): 30.5%
Activity (Rattus norvegicus [21]): 26.9%
Activity (Rattus norvegicus [22]): 62.6%
Activity (Rattus norvegicus [23]): 63%
half-life [24]: 3.8 h
Tmax [25]: 1 h
Cmax [26]: 1740 ng/mL
AUC(0-inf) [27]: 6700 ng·h/mL
CL/F [28]: 125 mL/min/kg
IC50 [29]: 373 nM
IC50 [30]: 562 nM
inhibition at 1 µM (CYP3A4 [31]): 88%
